Data set [1] has as its system 10DM24 deoxyribozyme. As to the kind of experiment: Ligation with full-length R oligonucleotide as substrate, varied 5′-terminal nucleotide. The data set is classed as biochemical. The settings on record: for kobs: full-length R substrate, deoxyribozyme nucleotide changed to maintain Watson-Crick complementarity. Here is the method:
(§1) General Description of Kinetic Assays. All kinetic assays with the 10DM24 deoxyribozyme and its variants were performed according to established methods (Flynn-Charlebois, et al. (2003) supra; Wang and Silverman (2003) supra). The 5′-^32P-labeled RNA substrate (L for “left-hand substrate”) that provides the branch-site adenosine was the limiting reagent relative to 10DM24 (E) and the truncated cofactor RNA (RΔ; R originally derived from “right-hand substrate”). The ratio L:E:RΔ was 1:10:30, with 0.25 μM 10DM24. The cofactor RΔ was 5′-phosphorylated unless otherwise stated. The RNA substrate L, deoxyribozyme 10DM24 and cofactor RΔ were annealed in 5 mM HEPES, pH 7.5, 15 mM NaCl, 0.1 mM EDTA by heating at 95° C. for 3 minutes and cooling on ice for 5 minutes. The ligation reactions were performed with the appropriate concentration of NTP substrate (0.05-50 mM) at a final buffer concentration of 100 mM CHES, pH 9.0, 150 mM NaCl, 2 mM KCl, and 40-400 mM MgCl2 at 37° C. for up to 5 hours. The combination of 1 mM NTP and 40 mM MgCl2 was defined as “standard incubation conditions”; 10 mM NTP and 150 mM MgCl2 was defined as “enhanced incubation conditions”. At appropriate timepoints, aliquots were removed from the sample, quenched into stop solution (80% formamide, 1× TB [89 mM each Tris and boric acid, pH 8.3], and 50 mM EDTA containing 0.025% bromophenol blue and xylene cyanol) and stored at −20° C. prior to analysis. Samples were separated by 20% denaturing PAGE at 30 W for 115 minutes and imaged with a PHOSPHORIMAGER. The resulting data were fit to the equation yield=Y·(1−e^−kt), where k=kobs and Y=final yield.
The generality of the ligation reaction using other NTP substrates in place of GTP was also determined. The analogous reaction with the full-length R oligonucleotide as substrate proceeded well when a 5′-terminal G was present (kobs 0.51 min^−1 for 5′-AppG), with only three-fold reduced rate with 5′-AppA (kobs 0.18 min^−1). The RNA substrate with 5′-AppC reacted 20-fold more slowly than 5′-AppG, but still gave high yield (kobs 0.024 min^−1; 89% in 3 hours), whereas the yield with 5′-AppU was very poor (kobs 0.002 min^−1; 9% in 3 hours). It is noted that in all cases, the corresponding deoxyribozyme nucleotide was changed to maintain Watson-Crick complementarity.

The test system of data set [2] is 10DM24 deoxyribozyme. Description: 10DM24-catalyzed ligation of small-molecule NTP substrate to branch-site adenosine of RNA substrate L with cofactor RΔ. The data set is classed as biochemical. Conditions: for krel = kobs,NTP*/kobs,NTP: relative to GTP. How it is done: as §1
Use of Free NTPs as Substrates. It was determined whether 10DM24 could catalyze ligation with free GTP as a substrate (see FIG. 1B), thereby transferring guanosine 5′-monophosphate (GMP) to the branch-site adenosine 2′-hydroxyl group. When RΔ, an oligoribonucleotide cofactor that corresponds to all of the remaining nucleotides of R, was added to 10DM24 along with GTP, ligation was efficient (FIG. 8; 94% yield in 5 hours and kobs 0.034 min^−1 under the standard incubation conditions of 1 mM GTP and 40 mM MgCl2 at pH 9.0, 37° C.). The RNA product with the single added guanosine at the branch-site adenosine was PAGE-purified and the identity confirmed by partial alkaline hydrolysis (50 mM NaHCO3 at 95° C. for 5 minutes) and MALDI mass spectrometry (m/z calcd. 5433, found 5437±5).

The subject of data set [3] is 10DM24-C44T mutant deoxyribozyme. Description: Ligation of NTP substrate with 10DM24 variant in which the terminal P4 nucleotide is changed C→T, cofactor RΔ. The settings on record: for krel = kobs,NTP*/kobs,NTP: relative to ATP. The data set is classed as biochemical. How it is done:
as §1
Focus was then placed on the purine NTPs (GTP, ATP) and their derivatives. When 1 mM ATP was provided as a small molecule substrate in place of GTP using the original 10DM24 sequence and RΔ, no reaction was observed (<1% in 5 hours). […] Furthermore, the kobs increased sixteen-fold to 0.013 min^−1 under enhanced conditions with 10 mM ATP (82% yield in 3 hours).

The subject of another data set is 10DM24 variant. Description: Ligation of ATP as substrate and cofactor with RΔΔ, P4 nucleotides 43 and 44 changed CC→TT. The data set is classed as biochemical. Conditions: 20 mM ATP, 150 mM MgCl2, RΔΔ.
Data set [4] relates to 10DM24 deoxyribozyme. Description: Ligation of GTP or pppGpG in presence of shorter cofactor RΔΔ. The data set is classed as biochemical. Here is the method: It was subsequently shown that a binding site for an NTP cofactor can be located adjacent to the substrate binding site. This was achieved by removing an additional nucleotide from the RΔ cofactor, forming the shorter RΔΔ cofactor which required two added nucleotides to reconstitute the complete P4 region (FIG. 10). The 10DM24-catalyzed ligation reaction of GTP in the presence of the two-nucleotide short cofactor RΔΔ was performed with the 5′-^32P-labeled RNA substrate (L) that provides the branch-site adenosine as the limiting reagent. For kinetic assays, the ratio of L:E:RΔΔ was 1:10:30 with 0.25 μM deoxyribozyme (E). For isolation of the reaction products, the ratio L:E:RΔΔ was 1:2:3 with 1.5 μM deoxyribozyme. The reaction was performed under the enhanced incubation conditions with 20 mM GTP and 150 mM MgCl2 in 100 mM CHES, pH 9.0, 150 mM NaCl, and 2 mM KCl at 37° C. for up to 7 hours. […] Both products were isolated and shown by partial alkaline hydrolysis to be branched with the connectivities A-G and A-GG (where A is the branch-site adenosine).
It was contemplated that the new A-GG product was formed by initial templated but otherwise uncatalyzed synthesis of a GG dinucleotide (i.e., pppGpG) from two GTP molecules, followed by 10DM24-catalyzed branch formation using this dinucleotide. […] The reaction was performed under the enhanced incubation conditions of 20 mM GTP and 150 mM MgCl2. […] The pppGpG dinucleotide was synthesized independently using T7 RNA polymerase (Huang, et al. (1998) supra) and led solely to the A-GG product. Although the pppGpG substrate had Kd,app of >1 mM with RΔΔ, similar to Kd,app for GTP with RΔ, the ligation reaction with pppGpG and RΔΔ had kobs six-fold higher than for the analogous reaction with GTP and RΔ (Table 8).
(§2) Similar experiments were performed using the mutant 10DM24 deoxyribozyme that has CTTT rather than CCTT in the P4 region (FIG. 11). For the DNA-catalyzed ligation of pppGpG, the 5′-^32P-labeled RNA with the branch-site adenosine (L) was incubated with the 10DM24 deoxyribozyme (E) and the cofactor RΔΔ in the ratio of L:E:RΔΔ=1:10:30 in the presence of 1 mM pppGpG and 40 mM MgCl2 in 100 mM CHES pH 9.0, 150 mM NaCl, and 2 mM KCl at 37° C. The analysis of the ligation reaction was performed as described herein. […] This is consistent with the model that pppGpG and the first two nucleotides of RΔΔ together reconstitute the P4 helix. When the ligation reaction with pppGpG was tested in the presence of RΔ instead of RΔΔ, the ligation product A-GG was formed, but with a 10-fold decrease in kobs (squares in FIG. 11). Because RΔ provides an extraneous G nucleotide when combined with pppGpG (see legend of FIG. 11), some disruption in activity is perhaps anticipated. […] This is consistent with the observation that GTP was also not a substrate for the 10DM24-C44T mutant deoxyribozyme.
The ligation reaction of pppGpG was also performed using a variety of pppGpG concentrations with the parent 10DM24 deoxyribozyme in the presence of RΔΔ and 40 mM MgCl2. In FIG. 12, the kobs values are plotted versus [pppGpG] and fit to kobs=kmax·[pppGpG]/(Kd,app+[pppGpG]). The Kd,app for pppGpG was >1 mM.

Data set [5] concerns mutant 10DM24 deoxyribozyme that has CTTT rather than CCTT in the P4 region. Description: Ligation of pppGpG, second deoxyribozyme nucleotide in P4 mutated C→T. The data set is classed as biochemical. Conditions: 1 mM pppGpG, RΔΔ, 40 mM MgCl2. Here is the method: as §2
In data set [6] the test system is 10DM24-C44T mutant deoxyribozyme. Description: Ligation of pppGpG, first DNA nucleotide in P4 (nucleotide 44) changed C→T. The data set is classed as biochemical. The settings on record: 1 mM pppGpG, RΔΔ, 40 mM MgCl2. How it is done: as §2
In the next data set the target is glmS riboswitch. Conditions: read-out: Kd,app; cited from earlier work.
The subject of data set [7] is 10DM24 deoxyribozyme. As to the kind of experiment: Multiple-turnover ligation of GTP. The data set is classed as biochemical. An excerpt: In contrast, upon 10DM24-catalyzed reaction of the oligoribonucleotide 2′-hydroxyl group with the NTP substrate, the binding affinity of the RNA for the deoxyribozyme was not expected to increase substantially. Thus, the capability of the engineered 10DM24 deoxyribozyme to catalyze the multiple-turnover ligation of GTP was examined. The 10DM24 deoxyribozyme was the limiting reagent, with the RNA substrate that provides the branch-site adenosine (L) in 10-fold excess over the deoxyribozyme (L:E:RΔ=10:1:3). The reaction was performed under the standard incubation conditions described herein using 1 mM GTP and 40 mM MgCl2 at 37° C. After 5 hours, the product yield was 50%, corresponding to 5 turnovers. Accordingly, with GTP as substrate, multiple-turnover behavior was shown using an RNA ligase deoxyribozyme.

The mark [8] stands for this setting: enhanced incubation conditions, 3 h.

Consider seven compounds from US20080207885A1, “Method for site-specific labeling of RNA using a deoxyribozyme” (priority 2007, published 2008).

“And” between values parts separate entries of the source, which are not always exact repeats. Equal values may be shown once. {App} = adenylated (5'-5' adenylyl pyrophosphate) terminus

Consider “5′-AppU: full-length R oligonucleotide substrate with 5′-terminal U (UGAAGAGAUGGCGACGG; RNA, 5' {App}, backbone not given here)”, for which, in the data set on 10DM24 deoxyribozyme [1], the “ligation yield in 3 hours” value stood at 9% and the kobs was 0.002 min⁻¹.
Regarding “5′-AppA: full-length R oligonucleotide substrate with 5′-terminal A (AGAAGAGAUGGCGACGG; RNA, 5' {App}, backbone not given here)”, the kobs with 10DM24 deoxyribozyme [1] was determined as 0.18 min⁻¹.
Regarding `Nc1ncnc2c1ncn2[C@@H]1O[C@H](COP(=O)(O)OP(=O)(O)OP(=O)(O)O)[C@@H](O)[C@H]1O` [ATP], the “ligation yield %, 5 h” value is reported as below 1% with 10DM24 deoxyribozyme [2] (standard incubation conditions) and 33% in data set [3] (standard incubation conditions). The “kobs,enh/kobs,std” value in data set [3] (ATP series) was determined as 16. The “ligation yield %, 3 h” value in [3] (setting [8]) was found to be 82%. Moreover, the kobs stood at 0.013 min⁻¹ in data set [3] (enhanced incubation conditions: 10 mM NTP, 150 mM MgCl2, pH 9.0, 37° C.) and 0.0008 min⁻¹ in data set [3] (standard incubation conditions: 1 mM NTP, 40 mM MgCl2, pH 9.0, 37° C., RΔ, ATP series). Moreover, the “krel = kobs,NTP*/kobs,NTP” value in data set [3] (enhanced incubation conditions) and in [3] (standard incubation conditions) was “(1)” throughout. Besides, the ligation product formed result in the data set on 10DM24 variant was “a small amount of the ATP ligation product”.
With `Nc1nc2c(ncn2[C@@H]2O[C@H](COP(=O)(O)O[C@H]3[C@@H](O)[C@H](n4cnc5c(=O)[nH]c(N)nc54)O[C@@H]3COP(=O)(O)OP(=O)(O)OP(=O)(O)O)[C@@H](O)[C@H]2O)c(=O)[nH]1` [pppGpG], in the data set on 10DM24 deoxyribozyme [4] (1 mM pppGpG + RΔΔ, 40 mM Mg2+), the kobs is 0.19 min⁻¹. Also, the product formation result in the data set with 10DM24 deoxyribozyme [4] (1 mM pppGpG, 40 mM MgCl2, in the absence of RΔΔ) is reported as “no product formation was observed”; in data set [6], “No product formation was observed”. Also, the results for the decrease in kobs (in the data set on 10DM24 deoxyribozyme [4] (in the presence of RΔ instead of RΔΔ); in [5]) were 10 fold and 130 fold, respectively. Also, the Kd at 10DM24 deoxyribozyme [4] (with RΔΔ, 40 mM Mg2+, pH 9.0, 37° C., read-out: Kd,app) was above 1000 µM.
As for `N[C@H]1C(O)O[C@H](COP(=O)(O)O)[C@@H](O)[C@@H]1O` (some centres unmarked) [glucosamine 6-phosphate], the Kd at glmS riboswitch is 200 µM.
“5′-AppC: full-length R oligonucleotide substrate with 5′-terminal C (CGAAGAGAUGGCGACGG; RNA, 5' {App}, backbone not given here)”: in the data set with 10DM24 deoxyribozyme [1], the “reacted more slowly than 5′-AppG” value stood at 20 fold, the “ligation yield in 3 hours” value is reported as 89% and the kobs worked out at 0.024 min⁻¹.
For `Nc1nc2c(ncn2[C@@H]2O[C@H](COP(=O)(O)OP(=O)(O)OP(=O)(O)O)[C@@H](O)[C@H]2O)c(=O)[nH]1` [GTP, guanosine 5′-triphosphate], in the data set on 10DM24 deoxyribozyme [2] (GTP series), the “kobs,enh/kobs,std” value is on record as 8. Further, the “ligation yield %, 3 h” value in the data set with 10DM24 deoxyribozyme [2] (setting [8]) came out at 94%. The kobs in the data set on 10DM24 deoxyribozyme [2] (enhanced incubation conditions: 10 mM NTP, 150 mM MgCl2, 100 mM CHES pH 9.0, 37° C.) was 0.26 min⁻¹ and 0.262 min⁻¹; in the data set with 10DM24 deoxyribozyme [2] (standard incubation conditions: 1 mM NTP, 40 mM MgCl2, 100 mM CHES pH 9.0, 150 mM NaCl, 2 mM KCl, 37° C., RΔ), 0.034 min⁻¹; in the data set with 10DM24 deoxyribozyme [4] (20 mM GTP + RΔΔ, 150 mM Mg2+), 0.0008 min⁻¹. The “krel = kobs,NTP*/kobs,NTP” value in the data set with 10DM24 deoxyribozyme [2] (enhanced incubation conditions) and in the data set with 10DM24 deoxyribozyme [2] (standard incubation conditions) was “(1)” in each case. Also, the Kd at 10DM24 deoxyribozyme [2] (from plot of kobs versus [GTP], RΔ, read-out: Kd,app) was above 1000 µM. Also, the results for the “ligation yield %, 5 h” value (in the data set with 10DM24 deoxyribozyme [2] (standard incubation conditions); in [3] (standard incubation conditions)) were 94% and below 1%, respectively. The compound further returned a product yield in the data set with 10DM24 deoxyribozyme [7] (L:E:RΔ=10:1:3, 1 mM GTP, 40 mM MgCl2, 37° C., 5 hours) of 50%. Besides, the turnovers with 10DM24 deoxyribozyme [7] (after 5 hours, L in 10-fold excess over deoxyribozyme) is 5. The reaction products formed entry in the data set on 10DM24 deoxyribozyme [4] (RΔΔ cofactor, 20 mM NTP and 150 mM MgCl2, pH 9.0, 37° C.) is given as “two reaction products”.
